Literature values in PMC10591878 (ACS infectious diseases, 2023).

Legend:
[1] = test system: P. falciparum Dd2-B2 parasites; conditions: for MIR: Dd2-B2; for resistant parasites in 3 wells of 3 × 10^7 / resistant parasites in 4 wells of 2.5 × 10^6: Dd2-B2, 3 × EC50
[2] = test system: Dd2-B2 Pf20S WT and mutant lines; conditions: β6 N151Y vs Dd2-B2 parental line

| Structure (SMILES) | MIR [1] | resistant parasites in 3 wells of 3 × 10^7 [1] | resistant parasites in 4 wells of 2.5 × 10^6 [1] | EC50 fold shift against selection compound [2] [×] | number of parasites with which resistance was obtained [1] |
| --- | --- | --- | --- | --- | --- |
| O=C(NC1CCCC1)[C@@H]1CCCCOc2cccc(c2)C[C@H](N2CCCC2=O)C(=O)N[C@@H](CCN2CCOCC2)C(=O)N1 [TDI-8304] | 3×10^7 | 3/3 wells | 0/4 wells | 1.7 | – |
| CC(C)C[C@@H](/C=C/S(C)(=O)=O)NC(=O)[C@H](CC(C)C)NC(=O)[C@H](Cc1c[nH]c2ccccc12)NC(=O)CN1CCOCC1 [WLL] | >1 × 10^9 | none | 0/4 wells | – | 2 × 10^9 parasites |
